# Reference: PubChem BioAssay AID504765 (Sanford-Burnham Center for Chemical Genomics, 2011)
# Activity calls are given as the source filed them. No rule for the calls is given here.
# Target: glucose-6-phosphate dehydrogenase-6-phosphogluconolactonase (Plasmodium falciparum 3D7)
# Assay: PfG6PD inhibitor potency, dose response, biochemical, fluorescence intensity (AID 504765)
# Conditions: Recombinant PfG6PD enzyme, fluorescence intensity (NADPH)
row,Structure (SMILES),IC50
1,Cc1cc(O)c(C(C)C)cc1N=Cc1ccccc1[N+](=O)[O-],3.44 µM
2,CCC(C)N(CCNC(=O)c1ccc2c(c1)NC(=O)c1ccccc1S2)C1CCCCC1 (stereo not drawn),6.48 µM
3,COc1ccc(N2CSC3=C(C#N)C(c4cc(OC)c(OC)cc4OC)CC(=O)N3C2)c(OC)c1 (stereo not drawn),3.13 µM
4,CCN1CCCC1CNC(=O)c1ccc2c(c1)NC(=O)/C(=C\c1ccc(C)cc1)S2 (stereo not drawn),3.16 µM
5,Cc1ccc(SC2=C(Sc3ccc(C)cc3)C(=O)c3ccccc3C2=O)cc1,11 µM
6,[O-]/[N+](=C\c1ccncc1)c1ccccc1,9.54 µM
7,O=C1C=CC(=O)N1c1ccc2c(c1)C(NC(=O)C(F)(F)F)c1ccccc1-2 (stereo not drawn),9.14 µM
8,CNCc1ccccc1Sc1cc(O)ccc1O,2.23 µM
9,O=c1c2cc(F)ccc2sn1-c1ccc(F)cc1,2.22 µM
10,CN(CCO)c1cc(Sc2nc3ccccc3s2)c2nonc2c1[N+](=O)[O-],11.1 µM
11,Cc1ccc(/C=C/C(=O)NC2CCCCCCC2)o1,9.66 µM
12,O=C(Nc1nnc(S(=O)(=O)N2CCCCC2)s1)c1ccc(Cl)cc1,6.01 µM
13,COc1cc(/C=N/n2cc(-c3ccccc3)[nH]c2=S)cc(OC)c1O,19.6 µM
14,O=C1C=CC(=O)N1CCCCCCCCCCN1C(=O)C=CC1=O,13.5 µM
15,Cc1cc(C)c(S(=O)(=O)/N=C2/C=C(SCC(=O)O)C(=O)c3ccccc32)cc1C,2.41 µM
16,CCOc1ccccc1NC(=O)CCCc1nc2ccccc2c(=O)[nH]1,7.4 µM
17,Nc1c(O)cccc1C(=O)O,1.44 µM
18,COc1cc(NCCCn2ccc(NC(=O)OCc3ccccc3)nc2=O)cc(OC)c1OC,17.6 µM
19,c1ccc(SSc2ccccn2)nc1,9.82 µM
20,C=CCSc1nc2sc3c(c2c(=O)n1CC)CCc1ccccc1-3,inactive
21,NCCc1cc(O)c(O)cc1O,3.51 µM
22,O=c1c2ccccc2sn1-c1ccc(Cl)cc1Cl,3.98 µM
23,O=[N+]([O-])c1cccc(SSc2cccc([N+](=O)[O-])c2)c1,7.67 µM

row,Structure (SMILES),IC50
1,Cn1c(=O)[nH]c(=O)c2c1[nH]c(=S)n2CCCc1ccccc1,inactive
2,COc1cc(CN2CCCC(C(=O)c3ccc4c5c(cccc35)CC4)C2)cc(OC)c1O (stereo not drawn),3.44 µM
3,Cc1ccc(/C=C/C(=O)NCC2COc3ccccc3O2)o1 (stereo not drawn),3.66 µM
4,CC(C)c1nnc(NC(=O)c2cc3ccccc3o2)s1,16.5 µM
5,COc1cc(C(=O)O/N=C2\C=CC(=O)C=C2C)cc(OC)c1OC,14.1 µM
6,CCC1(CC)Cc2ccccc2C(N)=C1C#N,inactive
7,Cc1cccc(C2(c3cccc(C)c3)CC2C(=O)Nc2ccc([N+](=O)[O-])cc2O)c1 (stereo not drawn),13.2 µM
8,Cc1ccc(-n2sc3cc(F)ccc3c2=O)c(C)c1,1.43 µM
9,O=C1/C(=C\c2ccc([N+](=O)[O-])cc2)CS(=O)(=O)C/C1=C/c1ccc([N+](=O)[O-])cc1,2.95 µM
10,CCSc1nc2cc(S(=O)(=O)N3CCOCC3)ccc2o1,inactive
11,Cc1ccc(NC(=O)Cn2sc3nc(C)cc(C)c3c2=O)c(Cl)c1,2.09 µM
12,CCOC(=O)c1sc(NC(=O)CSc2nnc(Cc3ccccc3)o2)c(C#N)c1C,inactive
13,O=C(N/N=C/c1cccc([N+](=O)[O-])c1)C(=O)N1CCCCCC1,5.45 µM
14,O=C(Cc1ccccc1)NCC(=O)OCC(=O)c1ccc([N+](=O)[O-])cc1,10.6 µM
15,CS(=O)(=O)c1ccc(N)c(SSc2cc(S(C)(=O)=O)ccc2N)c1,4.07 µM
16,CC(C)(C)c1ccc(C(=O)Nc2sc3c(c2C(=O)O)CCC3)cc1,12.7 µM
17,CN(C)c1ccc(Cc2cc3c(O)ccc(O)c3cc(Cc3ccc(N(C)C)cc3)c2=O)cc1,2.05 µM
18,COc1ccc(CNC(=O)Cc2cn(C)c3ccccc23)c(OC)c1,6.8 µM
19,COC1=CC(=O)C=C(OC)C1(O)CC(C)=O,5.91 µM
20,O=C(Cn1sc2ccccc2c1=O)Nc1ccc(F)cc1,2.56 µM
21,Cc1cc(O)c(C(C)C)cc1N=Cc1ccc([N+](=O)[O-])cc1,6.99 µM
22,COc1cc(/C=C/C(=O)c2ccc([N+](=O)[O-])o2)ccc1O,5.16 µM
23,OCCN1CCN(C(=S)c2ccc(Cl)c(Cl)c2)CC1,12.5 µM

row,Structure (SMILES),IC50
1,CC1=CC(=NOC(=O)/C=C/c2ccccc2)C=C(C)C1=O,13.9 µM
2,COc1cc(N)c2ncccc2c1SC,inactive
3,Nc1ccc2c3c(cccc13)-c1ccccc1-2,inactive
4,CCn1c(=O)n(CC)c2cc(N3CCCC3)c(NC(=O)c3cccc(C)c3)cc21,inactive
5,CCOc1ccc(S(=O)(=O)Nc2cc(SCC(=O)O)c(O)c3ccccc23)cc1,2.47 µM
6,c1cc2c(cc1NC1CCCCCC1)OCO2,19.2 µM
7,CCOC(=O)Cc1csc(-n2sc3ccccc3c2=O)n1,2.82 µM
8,O=C(Nc1nnc(S(=O)(=O)N2CCOCC2)s1)c1ccc(F)cc1,11.4 µM
9,CCCCCCCCSC1=CC(=O)C(OC)=C(OC)C1=O,1.71 µM
10,CC1=C(C)CS(=O)N(S(=O)(=O)c2ccc(Cl)cc2)C1 (stereo not drawn),inactive
11,Cc1ccc(S(=O)c2ccc([N+](=O)[O-])c3nonc23)cc1 (stereo not drawn),8.19 µM
12,Cc1cc(O)c(C(C)C)cc1N=Cc1ccc(N(C)C)cc1,4.4 µM
13,COC(=O)c1cc2c(n1S(=O)(=O)c1ccc(C)cc1)C(=O)C(=O)c1[nH]cc(C(=O)OCc3ccccc3)c1-2,15.8 µM
14,COc1cc(NCCCn2cnc3c(OCc4ccccc4)ncnc32)cc(OC)c1OC,> 80 µM (inactive)
15,O=C(O)c1cccc(N2C(=O)C=CC2=O)c1,15.5 µM
16,COc1cc(N=Cc2c(CO)cnc(C)c2O)cc(OC)c1OC,19.6 µM
17,Cc1cnc(C=NNC(N)=S)c2cccc(N)c12,1.72 µM
18,C=CCOc1c(Cl)cc(CNc2ccc(N(C)C)cc2)cc1OC,9.87 µM
19,Cc1ccccc1OCC(=O)NCC(=O)OCC(=O)c1ccc([N+](=O)[O-])cc1,17.2 µM
20,O=C(CBr)c1ccc([N+](=O)[O-])c(CS(=O)(=O)c2ccc(Cl)cc2)c1,10.5 µM
21,OCCN1CCN(C(=S)c2ccc(-c3ccccc3)cc2)CC1,19.6 µM
22,COc1ccc(Nc2cc(C)c3c(O)cccc3n2)cc1,5.06 µM
